Source: patent US5594006A, “Carbostyril derivatives as matrix metalloproteinases inhibitors” (Otsuka Pharmaceutical Co., Ltd., priority 1993, dated 1997)

Key:
[1] = target: T1, Interstitial collagenase (Homo sapiens, UniProt P03956); test: Interstitial collagenase inhibiting activity (fluorescence labeled collagen); assay type: biochemical; settings: from human fibroblast cell (Detroit 551); 2 hours at 35° C., pH 7.5
T1 construct: endogenous in cells; host or cells: Detroit 551 (human fibroblasts), culture supernatant, purified
T1 sequence (P03956 100-469): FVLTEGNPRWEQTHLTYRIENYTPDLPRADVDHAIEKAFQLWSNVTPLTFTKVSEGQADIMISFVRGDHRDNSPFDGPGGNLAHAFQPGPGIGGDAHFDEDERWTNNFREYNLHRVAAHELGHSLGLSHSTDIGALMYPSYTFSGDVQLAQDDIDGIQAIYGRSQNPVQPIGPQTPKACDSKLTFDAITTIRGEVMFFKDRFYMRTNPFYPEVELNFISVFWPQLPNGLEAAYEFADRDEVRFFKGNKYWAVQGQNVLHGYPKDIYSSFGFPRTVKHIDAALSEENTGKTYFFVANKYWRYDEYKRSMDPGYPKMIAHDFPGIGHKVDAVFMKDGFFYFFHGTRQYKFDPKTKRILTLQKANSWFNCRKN
Procedure: (2) Measuring Method of Interstitial Collagenase Inhibiting Activity
Inhibiting of interstitial collagenase refined from the culture supernatant of human fibroblast cell (Detroit 551 cell) was measured by using fluorescence labeled collagen, according to the method proposed by Nagai et al. [Inflammation, 4 (2), 123 (1984)].
The enzyme was activated by incubating for 3 hours at 37° C. in 1 mM mercury (II) p-aminophenylacetate. The test compound was used by dissolving in dimethyl sulfoxide. The enzyme reaction was started by adding the activated enzyme in 50 mM TRIS-hydrochloric acid (pH 7.5), 0.2M NaCl, 5 mM CaCl2, 0.02% (w/v) NaN3, 2.5 mM acetic acid, and 0.1% (v/v) dimethyl sulfoxide solution containing the test compound and 0.025% (w/v) of fluorescence labeled collagen as substrate. The reaction was conducted for 2 hours at 35° C., and stopped by adding ice-chilled 80 mM O-phenanthroline, 50% (v/v) ethanol solution by 1/20 amount. To this, moreover, an equivalent volume of 50 mM TRIS-hydrochloric acid (pH 7.5), 0.2M NaCl, 5 mM CaCl2, 0.02% (w/v) NaN3 solution was added to incubate further for 1 hour at 35° C. to degenerate specifically only the digestion product, and the digestion product was extracted by adding 0.17M TRIS-hydrochloric acid (pH 9.5), 0.67M NaCl solution including an equivalent amount of 70% (v/v) ethanol, and afterwards, by centrifugal separation for 15 minutes at 3000 rpm, 4° C., the undigested substrate was precipitated. The fluorescence intensity of the obtained supernatant was measured at 520 nm (Em)/495 nm (Ex), and the decomposition volume was quantitatively determined.
(§1) The enzyme inhibiting activity was expressed by the concentration (IC50) of the test compound wherein the enzyme activity of known amount was inhibited till 50%.

[2] = target: T2, Stromelysin (Mus musculus, UniProt P28862); test: Stromelysin inhibiting activity (fluorescence labeled casein); assay type: biochemical; settings: from mouse colon cancer cell (Colon 26); 3 hours at 37° C., pH 7.5
T2 construct: endogenous in cells; host or cells: Colon 26 (mouse colon cancer cells), culture supernatant, purified
Procedure: (1) Measuring Method of Stromelysin Inhibiting Activity
Inhibiting of Stromelysin refined from the culture supernatant of mouse colon cancer cell (Colon 26 cell) was measured by using fluorescence labeled casein, according to the method proposed by Miyazaki et al. (J. Biochem., 108, 537-543, 1990), and S. S. Twining [Fed. Proc., 42, 1951 (1984)].
The enzyme was activated by incubating for 2 hours at 37° C. in 1 mM mercury (II) p-aminophenylacetate. The test compound was used by dissolving in dimethyl sulfoxide. The enzyme reaction was started by adding the activated enzyme in a solution of 50 mM TRIS-hydrochloric acid (pH 7.5), 10 mM CaCl2, and 0.1% (v/v) dimethyl sulfoxide containing the test compound and 0.25% (w/v) of fluorescence labeled casein as substrate. The reaction was conducted for 3 hours at 37° C., and stopped by adding an equivalent amount of 5% (w/v) trichloroacetic acid solution. Afterwards, by centrifugal separation for 15 minutes at 3000 rpm, 4° C., the undigested substrate was precipitated, and to 1 part by volume of the obtained supernatant, 4 parts by volume of 0.3M phosphate buffer (pH 8.5) was added, and the fluorescence intensity was measured at 520 nm (Em)/495 nm (Ex), and the decomposition volume was quantitatively determined.
as §1

T2 sequence (P28862 100-477): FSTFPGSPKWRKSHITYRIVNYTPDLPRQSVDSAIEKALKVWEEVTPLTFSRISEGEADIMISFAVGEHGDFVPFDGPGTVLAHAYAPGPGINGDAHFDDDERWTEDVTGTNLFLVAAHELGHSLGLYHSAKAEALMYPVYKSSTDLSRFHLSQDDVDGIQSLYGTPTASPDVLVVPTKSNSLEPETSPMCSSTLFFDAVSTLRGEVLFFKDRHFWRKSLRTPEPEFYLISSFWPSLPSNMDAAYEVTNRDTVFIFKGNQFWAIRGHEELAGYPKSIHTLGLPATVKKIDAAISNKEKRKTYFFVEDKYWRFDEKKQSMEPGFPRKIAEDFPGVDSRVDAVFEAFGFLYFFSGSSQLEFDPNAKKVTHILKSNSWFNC

IC50 [1] [nM] | IC50 [2] [nM] | Compound
0.064 | – | CON1C(=O)[C@@H](NC(=O)[C@H](CC(C)C)C(Cc2ccc3c(c2)OCO3)C(=O)NO)Cc2ccccc21 (stereo partly drawn) [Test compound 23, 3S-[4-(N-hydroxyamino)-2R-isobutyl-3-(3,4-methylenedioxybenzyl)succinyl]amino-1-methoxy-3,4-dihydrocarbostyril]
740 | – | COCCN1C(=O)[C@@H](NC(=O)[C@@H](CC(=O)NO)CC(C)C)Cc2cc3c(cc21)OCO3 [Test compound 24, 3S-[4-(N-hydroxyamino)-2R-isobutylsuccinyl]amino-1-methoxyethyl-6,7-methylenedioxy-3,4-dihydrocarbostyril]
3700 | – | CCOCC[C@H](CC(=O)NO)C(=O)N[C@H]1Cc2ccccc2N(OC)C1=O [Test compound 22, 3S-[4-(N-hydroxyamino)-2R-ethoxyethylsuccinyl]amino-1-methoxy-3,4-dihydrocarbostyril]
10 | 28 | C=CCN1C(=O)[C@@H](NC(=O)[C@H](CC(C)C)[C@H](C)C(=O)NO)Cc2ccccc21 [Test compound 13, 1-allyl-3S-[4-(N-hydroxyamino)-2R-isobutyl-3S-methylsuccinyl]amino-3,4-dihydrocarbostyril]
22 | 36 | CON1C(=O)[C@@H](NC(=O)[C@H](CC(C)C)[C@H](C)C(=O)NO)Cc2ccccc21 [Test compound 9, 3S-[4-(N-hydroxyamino)-2R-isobutyl-3S-methylsuccinyl]amino-1-methoxy-3,4-dihydrocarbostyril]
87 | – | CCN1C(=O)[C@@H](NC(=O)[C@@H](CC(=O)NO)CC(C)C)Cc2cc3c(cc21)OCO3 [Test compound 28, 1-ethyl-3S-[4-(N-hydroxyamino)-2R-isobutylsuccinyl]amino-6,7-methylenedioxy-3,4-dihydrocarbostyril]
4100 | – | COCCN1C(=O)[C@H](NC(=O)[C@@H](CC(=O)NO)CC(C)C)Cc2cc3c(cc21)OCO3 [Test compound 25, 3R-[4-(N-hydroxyamino)-2R-isobutylsuccinyl]amino-1-methoxyethyl-6,7-methylenedioxy-3,4-dihydrocarbostyril]
370 | – | COCON1C(=O)[C@@H](NC(=O)[C@@H](CC(=O)NO)CC(C)C)Cc2ccccc21 [Test compound 31, 3S-[4-(N-hydroxyamino)-2R-isobutylsuccinyl]amino-1-methoxymethoxy-3,4-dihydrocarbostyril]
110 | – | COCCN1C(=O)[C@@H](NC(=O)[C@@H](CC(=O)NO)CC(C)C)Cc2ccccc21 [Test compound 21, 3S-[4-(N-hydroxyamino)-2R-isobutylsuccinyl]amino-1-methoxyethyl-3,4-dihydrocarbostyril]
290 | 700 | CCN1C(=O)[C@@H](NC(=O)[C@@H](CC(=O)NO)CC(C)C)Cc2ccccc21 [Test compound 12, 1-ethyl-3S-[4-(N-hydroxyamino)-2R-isobutylsuccinyl]amino-3,4-dihydrocarbostyril]
1000 | – | COCCN1C(=O)C(NC(=O)[C@@H](CC(=O)NO)CC(C)C)Cc2cc3c(cc21)OCO3 (stereo partly drawn) [Test compound 26, 3-[4-(N-hydroxyamino)-2R-isobutylsuccinyl]amino-1-methoxyethyl-6,7-methylendioxy-3,4-dihydrocarbostyril]
31 | 200 | CC(C)C[C@H](CC(=O)NO)C(=O)N[C@H]1Cc2ccccc2N(CC(N)=O)C1=O [Test compound 10, 1-aminocarbonylmethyl-3S-[4-(N-hydroxyamino)-2R-isobutylsuccinyl]amino-3,4-dihydrocarbostyril]
20 | – | C#CCN1C(=O)[C@@H](NC(=O)[C@H](CC(C)C)[C@H](C)C(=O)NO)Cc2ccccc21 [Test compound 15, 3S-[4-(N-hydroxyamino)-2R-isobutyl-3S-methylsuccinyl]amino-1-(2-propynyl)-3,4-dihydrocarbostyril]
69 | – | CC(C)C[C@@H](C(=O)N[C@H]1Cc2ccccc2N(CC(=O)O)C1=O)[C@H](C)C(=O)NO [Test compound 16, 1-carboxymethyl-3S-[4-(N-hydroxyamino)-2R-isobutyl-3S-methylsuccinyl]amino-3,4-dihydrocarbostyril]
22 | 37 | COCN1C(=O)[C@@H](NC(=O)[C@@H](CC(=O)NO)CC(C)C)Cc2ccccc21 [Test compound 14, 3S-[4-(N-hydroxyamino)-2R-isobutylsuccinyl]amino-1-methoxymethyl-3,4-dihydrocarbostyril]
41 | – | CCON1C(=O)[C@@H](NC(=O)[C@@H](CC(=O)NO)CC(C)C)Cc2ccccc21 [Test compound 17, 1-ethoxy-3S-[4-(N-hydroxyamino)-2R-isobutylsuccinyl]amino-3,4-dihydrocarbostyril]
750 | 290 | COC(=O)c1ccc(CN2C(=O)[C@@H](NC(=O)[C@@H](CC(=O)NO)CC(C)C)Cc3ccccc32)cc1 [Test compound 11, 3S-[4-(N-hydroxyamino)-2R-isobutylsuccinyl]amino-1-(4-methoxycarbonylbenzyl)-3,4-dihydrocarbostyril]
220 | – | CCCCCCC[C@H](CC(=O)NO)C(=O)N[C@H]1Cc2ccccc2N(OC)C1=O [Test compound 20, 3S-[4-(N-hydroxyamino)-2R-heptylsuccinyl]amino-1-methoxy-3,4-dihydrocarbostyril]
160 | 380 | CCOC(=O)CN1C(=O)[C@@H](NC(=O)[C@@H](CC(=O)NO)CC(C)C)Cc2ccccc21 [Test compound 8, 1-ethoxycarbonylmethyl-3S-[4-(N-hydroxyamino)-2R-isobutylsuccinyl]amino-3,4-dihydrocarbostyril]
11 | – | CCCCC[C@H](CC(=O)NO)C(=O)N[C@H]1Cc2ccccc2N(OC)C1=O [Test compound 30, 3S-[4-(N-hydroxyamino)-2R-pentylsuccinyl]amino-1-methoxy-3,4-dihydrocarbostyril]
88 | – | COCCOCN1C(=O)[C@@H](NC(=O)[C@@H](CC(=O)NO)CC(C)C)Cc2ccccc21 [Test compound 18, 3S-[4-(N-hydroxyamino)-2R-isobutylsuccinyl]amino-1-methoxyethoxymethyl-3,4-dihydrocarbostyril]
